The Kinase Knowledgebase extract (Sharma et al. 2016)
pIC50: −log10 of the molar value.

Columns and labels:
EGFR = EGFR (UniProt P00533)
EGFR (human) = EGFR (human) (UniProt P00533); conditions: 3t3
Chain of EGFR (human) (P00533 whole entry, looked up): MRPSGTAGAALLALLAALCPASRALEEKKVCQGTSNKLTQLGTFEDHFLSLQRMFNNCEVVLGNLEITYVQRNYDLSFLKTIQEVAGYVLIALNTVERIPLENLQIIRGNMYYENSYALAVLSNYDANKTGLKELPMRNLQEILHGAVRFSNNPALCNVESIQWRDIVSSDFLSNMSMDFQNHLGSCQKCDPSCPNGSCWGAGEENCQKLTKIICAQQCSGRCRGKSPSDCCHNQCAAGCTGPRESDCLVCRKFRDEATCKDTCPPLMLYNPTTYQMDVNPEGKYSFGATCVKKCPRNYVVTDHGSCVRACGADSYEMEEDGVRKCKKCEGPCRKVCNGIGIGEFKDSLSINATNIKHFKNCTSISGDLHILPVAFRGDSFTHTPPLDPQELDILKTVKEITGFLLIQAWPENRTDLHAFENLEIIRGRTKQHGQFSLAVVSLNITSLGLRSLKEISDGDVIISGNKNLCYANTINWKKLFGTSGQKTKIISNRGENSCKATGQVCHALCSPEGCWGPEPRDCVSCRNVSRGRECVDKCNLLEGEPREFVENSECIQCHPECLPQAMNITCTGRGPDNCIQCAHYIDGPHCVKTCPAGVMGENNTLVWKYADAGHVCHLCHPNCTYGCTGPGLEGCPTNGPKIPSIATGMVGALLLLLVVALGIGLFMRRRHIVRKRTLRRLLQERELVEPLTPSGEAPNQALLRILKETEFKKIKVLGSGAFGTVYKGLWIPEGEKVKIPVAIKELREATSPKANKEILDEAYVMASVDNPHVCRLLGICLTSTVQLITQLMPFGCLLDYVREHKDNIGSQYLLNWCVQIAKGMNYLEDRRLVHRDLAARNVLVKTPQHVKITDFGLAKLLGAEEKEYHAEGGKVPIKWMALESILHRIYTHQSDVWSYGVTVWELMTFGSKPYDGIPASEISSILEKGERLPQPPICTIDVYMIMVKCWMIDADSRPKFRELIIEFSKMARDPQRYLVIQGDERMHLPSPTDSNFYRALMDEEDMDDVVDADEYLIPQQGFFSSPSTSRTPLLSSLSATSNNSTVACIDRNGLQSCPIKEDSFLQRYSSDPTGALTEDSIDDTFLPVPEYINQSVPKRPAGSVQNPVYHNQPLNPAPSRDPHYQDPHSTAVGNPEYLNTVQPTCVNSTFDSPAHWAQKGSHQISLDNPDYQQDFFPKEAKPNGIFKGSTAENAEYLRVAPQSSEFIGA

Chain of EGFR (P00533 whole entry, looked up): as above

SMILES | pIC50 (EGFR) | pIC50 (EGFR (human))
CCc1ccc2c(c1)/C(=C/c1[nH]cc(CCC(=O)O)c1C)C(=O)N2 | – | < 4.30
Cc1c(CCC(=O)O)c[nH]c1/C=C1/C(=O)Nc2cc(Cl)ccc21 | – | < 4.30
COc1ccc(-c2ccc3c(c2)NC(=O)/C3=C\c2[nH]c(C)c(CCCN3CCOCC3)c2C)cc1 | < 4.00 | < 4.30
COc1ccc2c(c1)NC(=O)/C2=C\c1[nH]cc(CCC(=O)O)c1C | – | < 4.30
COC(=O)c1ccc2c(c1)/C(=C/c1[nH]cc(CCC(=O)O)c1C)C(=O)N2 | – | < 4.30
Cc1ccc2c(c1)/C(=C\c1[nH]cc(CCC(=O)O)c1C)C(=O)N2 | – | < 4.30
COc1ccc(-c2ccc3c(c2)NC(=O)/C3=C\c2[nH]c(C)c(CCC(=O)O)c2C)cc1 | – | < 4.30
Cc1c(CCC(=O)O)c[nH]c1/C=C1/C(=O)Nc2cc(-c3ccccc3)ccc21 | – | 4.52
Cc1c(CCC(=O)O)c[nH]c1/C=C1/C(=O)Nc2ccc(I)cc21 | – | < 4.30
COc1ccc2c(c1)NC(=O)/C2=C\c1[nH]c(C)c(CCCN(C)C)c1C | < 4.00 | 4.56
Cc1c(CCC(=O)O)c[nH]c1/C=C1/C(=O)Nc2ccc(Br)cc21 | – | < 4.30
COc1ccc2c(c1)NC(=O)/C2=C\c1[nH]c(C)c(CCC(=O)O)c1C | – | < 4.30
Cc1[nH]c(/C=C2/C(=O)Nc3ccccc32)c(C)c1CCCN1CCOCC1 | < 4.00 | < 4.30
Cc1[nH]c(/C=C2/C(=O)Nc3ccc(Cl)cc32)c(C)c1CCC(=O)O | – | < 4.30
COc1cccc(-c2ccc3c(c2)NC(=O)/C3=C\c2[nH]c(C)c(CCCN3CCOCC3)c2C)c1 | < 4.00 | 4.38
Cc1[nH]c(/C=C2/C(=O)Nc3cc(O)ccc32)c(C)c1CCC(=O)O | – | < 4.30

SMILES | pIC50 (EGFR) | pIC50 (EGFR (human))
Cc1cccc2c1/C(=C\c1[nH]c(C)c(CCC(=O)O)c1C)C(=O)N2 | – | < 4.30
Cc1c(CCC(=O)O)c[nH]c1/C=C1/C(=O)Nc2ccccc21 | – | < 4.30
COc1ccc2c(c1)/C(=C/c1[nH]cc(CCC(=O)O)c1C)C(=O)N2 | – | < 4.30
Cc1[nH]c(/C=C2/C(=O)Nc3ccc(Br)cc32)c(C)c1CCC(=O)O | – | < 4.30
COc1ccc(-c2ccc3c(c2)NC(=O)/C3=C\c2[nH]cc(CCC(=O)O)c2C)cc1 | – | 4.43
Cc1[nH]c(/C=C2/C(=O)Nc3ccc(Br)cc32)c(C)c1CCCN1CCOCC1 | < 4.00 | 4.35
Cc1c(CCC(=O)O)c[nH]c1/C=C1/C(=O)Nc2cc(Br)ccc21 | – | < 4.30
CCOc1cccc(-c2ccc3c(c2)NC(=O)/C3=C\c2[nH]cc(CCC(=O)O)c2C)c1 | – | 4.43
Cc1[nH]c(/C=C2/C(=O)Nc3cc(-c4ccccc4)ccc32)c(C)c1CCC(=O)O | – | 4.49
COc1cc2c(cc1OC)/C(=C/c1[nH]cc(CCC(=O)O)c1C)C(=O)N2 | – | < 4.30
Cc1[nH]c(/C=C2/C(=O)Nc3ccc(S(=O)(=O)N4CCOCC4)cc32)c(C)c1CCCN(C)C | – | 4.53
COc1cccc(-c2ccc3c(c2)NC(=O)/C3=C\c2[nH]cc(CCC(=O)O)c2C)c1 | – | 4.51
Cc1ccc2c(c1)/C(=C\c1[nH]c(C)c(CCC(=O)O)c1C)C(=O)N2 | – | < 4.30
Cc1[nH]c(/C=C2/C(=O)Nc3cc(-c4ccccc4)ccc32)c(C)c1CCCN1CCOCC1 | < 4.00 | < 4.30
Cc1cccc2c1/C(=C\c1[nH]cc(CCC(=O)O)c1C)C(=O)N2 | – | < 4.30
Cc1[nH]c(/C=C2/C(=O)Nc3ccc(I)cc32)c(C)c1CCC(=O)O | – | < 4.30

Compounds with a higher pIC50 (EGFR (human)), results first:

pIC50 (EGFR) | pIC50 (EGFR (human)) | SMILES
< 4.00 | 5.41 | COc1ccccc1-c1ccc2c(c1)NC(=O)/C2=C\c1[nH]c(C)c(CCCN2CCOCC2)c1C
4.06 | 4.60 | Cc1[nH]c(/C=C2/C(=O)Nc3cc(Cl)ccc32)c(C)c1CCCN(C)C
– | 4.60 | Cc1[nH]c(/C=C2/C(=O)Nc3cccc(CCO)c32)c(C)c1CCCN(C)C
< 4.00 | 5.13 | Cc1[nH]c(/C=C2/C(=O)Nc3ccc(Cl)cc32)c(C)c1CCCN(C)C
– | 5.08 | Cc1[nH]c(/C=C2\C(=O)Nc3ccc(S(=O)(=O)NC(C)C)cc32)c(C)c1CCCN(C)C
– | 4.61 | CCOc1cccc(-c2ccc3c(c2)NC(=O)/C3=C\c2[nH]c(C)c(CCC(=O)O)c2C)c1
< 4.00 | 4.96 | COc1ccc2c(c1)/C(=C/c1[nH]c(C)c(CCCN(C)C)c1C)C(=O)N2
4.64 | 5.02 | COc1ccccc1-c1ccc2c(c1)NC(=O)/C2=C\c1[nH]c(C)c(CCCN(C)C)c1C
< 4.00 | 4.90 | Cc1[nH]c(/C=C2/C(=O)Nc3ccccc32)c(C)c1CCCN(C)C
– | 4.92 | Cc1c(CCC(=O)O)c[nH]c1/C=C1/C(=O)Nc2ccc(Cl)cc21
– | 4.60 | Cc1ccc2c(c1)/C(=C\c1[nH]c(C)c(CCCN(C)C)c1C)C(=O)N2
< 4.00 | 5.41 | COc1ccc(-c2ccc3c(c2)NC(=O)/C3=C\c2[nH]c(C)c(CCCN(C)C)c2C)cc1
< 4.00 | 5.39 | Cc1[nH]c(/C=C2/C(=O)Nc3ccc(Br)cc32)c(C)c1CCCN(C)C
< 4.00 | 5.40 | Cc1[nH]c(/C=C2/C(=O)Nc3cc(-c4ccccc4)ccc32)c(C)c1CCCN(C)C
– | 5.18 | Cc1[nH]c(/C=C2/C(=O)Nc3ccc(S(N)(=O)=O)cc32)c(C)c1CCCN(C)C
4.55 | 5.02 | COc1cccc(-c2ccc3c(c2)NC(=O)/C3=C\c2[nH]c(C)c(CCCN(C)C)c2C)c1
– | 4.95 | Cc1[nH]c(/C=C2/C(=O)Nc3ccc(S(=O)(=O)N(C)C)cc32)c(C)c1CCCN(C)C
– | 4.69 | Cc1cccc2c1/C(=C\c1[nH]c(C)c(CCCN(C)C)c1C)C(=O)N2
